Reference: US4211772A, “Benzopyran glycoside acetals and ketals” (Laboratoires Sarget, priority 1977, dated 1980)
≈ marks a conversion by molar mass, not a printed value. Where two headings read alike, the source gives them in different places.

How the values were obtained:
Solubilities in water = format: physicochemical; details: water; read-out: Solubilities in water
Aldose Reductase = target: T1, Aldose Reductase (Bos taurus, UniProt P16116); assay: Inhibition of aldose reductase in vitro (enzyme from beef eye lenses, glyceraldehyde substrate); format: biochemical; details: in DMF solution, read-out: percentages of inhibition (aldose reductase)
T1 construct: The enzyme is extracted from beef eye lenses; from tissue; host or cells: beef eye lenses
Source text: Inhibition of Aldose Reductase In Vitro
The reoxidation of NADPH coupled to the enzymatic reaction was followed spectrophotometrically at 340 nm.

carragenin edema = assay: Anti-inflammatory activity: carragenin edema test; format: in vivo; details: for % inhibition of carragenin edema: borate buffer pH 7, 24 h; for inhibition in vivo at 75 mg/kg / inhibition in vivo at 100 mg/kg / inhibition in vivo at 150 mg/kg / inhibition in vivo at 200 mg/kg: Rattus norvegicus, ip
Outline: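 Male Wistar EOPS rats receive 0.1 ml of 5% carragenin suspension in physiological serum into the hind-paw metatarsal muscle, with test substance given i.p. in neutralized solution at the same time. Paw edema is measured by plethysmometry at several times after carragenin and reported as % inhibition against pH-matched physiological serum controls.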

capillary resistance = assay: Capillaroprotecting effects: capillary resistance; format: in vivo, male OFA EOPS rats
Experimental: (§1) Capillaroprotecting effects
The capillary resistance was determined by a variant of the method of Charlier et al, Arch. Inter. Physiol.

capillary permeability = assay: Capillaroprotecting effects: capillary permeability; format: in vivo, conventional male Wistar rats
Experimental: as §1
The capillary permeability was determined by the method of Charlier et al, Arch. Inter. Physiol.

OF1 EOPS mice = assay: Acute i.p. toxicity in OF1 EOPS mice; format: in vivo; details: neutralized borate buffer, over 7 days
Experimental: The acute toxicity of the compounds of the present invention was determined in mice.

C[C@@H]1O[C@@H](Oc2c(-c3ccc(O)c(O)c3)oc3cc(O)cc(O)c3c2=O)[C@@H]2OC(C)(C)O[C@@H]2[C@H]1O [No. 3, 3-O-(2,3-O,O-isopropylidene-α-L-rhamnosyl)-quercetin]
solubility (Solubilities in water): 1600 µg/mL (≈ 3.28 mM) | inhibition at 100 µM (Aldose Reductase; 10^-4 mole/l): 100% | inhibition at 10 µM (Aldose Reductase; 10^-5 mole/l): 92% | inhibition at 1 µM (Aldose Reductase; 10^-6 mole/l): 80% | inhibition at 0.1 µM (Aldose Reductase; 10^-7 mole/l): 40% | % inhibition of carragenin edema (carragenin edema; 75 mg/kg i.p.): 21% | % inhibition of carragenin edema (carragenin edema; 100 mg/kg i.p.): 17% | % inhibition of carragenin edema (carragenin edema; 150 mg/kg i.p.): 11% | % inhibition of carragenin edema (carragenin edema; 200 mg/kg i.p.): 0% | inhibition in vivo at 75 mg/kg (carragenin edema; 1 h, pH 7, read-out: % inhibition of carragenin edema, 75 mg/kg i.p., borate buffer pH 7, 1 h): 0% | inhibition in vivo at 75 mg/kg (carragenin edema; 1 h, pH 7, read-out: % inhibition of carragenin edema, 75 mg/kg i.p., borate buffer pH 7, 1 h 1/2): 0% | inhibition in vivo at 100 mg/kg (carragenin edema; 1 h, pH 7, read-out: % inhibition of carragenin edema, 100 mg/kg i.p., borate buffer pH 7, 1 h): 55% | inhibition in vivo at 100 mg/kg (carragenin edema; 1 h, pH 7, read-out: % inhibition of carragenin edema, 100 mg/kg i.p., borate buffer pH 7, 1 h 1/2): 41% | inhibition in vivo at 150 mg/kg (carragenin edema; 1 h, pH 7, read-out: % inhibition of carragenin edema, 150 mg/kg i.p., borate buffer pH 7, 1 h): 0% | inhibition in vivo at 150 mg/kg (carragenin edema; 1 h, pH 7, read-out: % inhibition of carragenin edema, 150 mg/kg i.p., borate buffer pH 7, 1 h 1/2): 0% | inhibition in vivo at 200 mg/kg (carragenin edema; 1 h, pH 7, read-out: % inhibition of carragenin edema, 200 mg/kg i.p., borate buffer pH 7, 1 h): 45% | inhibition in vivo at 200 mg/kg (carragenin edema; 1 h, pH 7, read-out: % inhibition of carragenin edema, 200 mg/kg i.p., borate buffer pH 7, 1 h 1/2): 12% | inhibition in vivo at 75 mg/kg (carragenin edema; 2 h, pH 7, read-out: % inhibition of carragenin edema, 75 mg/kg i.p., borate buffer pH 7, 2 h): 10% | inhibition in vivo at 100 mg/kg (carragenin edema; 2 h, pH 7, read-out: % inhibition of carragenin edema, 100 mg/kg i.p., borate buffer pH 7, 2 h): 30% | inhibition in vivo at 150 mg/kg (carragenin edema; 2 h, pH 7, read-out: % inhibition of carragenin edema, 150 mg/kg i.p., borate buffer pH 7, 2 h): 20% | inhibition in vivo at 200 mg/kg (carragenin edema; 2 h, pH 7, read-out: % inhibition of carragenin edema, 200 mg/kg i.p., borate buffer pH 7, 2 h): 0% | inhibition in vivo at 75 mg/kg (carragenin edema; 3 h, pH 7, read-out: % inhibition of carragenin edema, 75 mg/kg i.p., borate buffer pH 7, 3 h): 6% | inhibition in vivo at 100 mg/kg (carragenin edema; 3 h, pH 7, read-out: % inhibition of carragenin edema, 100 mg/kg i.p., borate buffer pH 7, 3 h): 19% | inhibition in vivo at 150 mg/kg (carragenin edema; 3 h, pH 7, read-out: % inhibition of carragenin edema, 150 mg/kg i.p., borate buffer pH 7, 3 h): 0% | inhibition in vivo at 200 mg/kg (carragenin edema; 3 h, pH 7, read-out: % inhibition of carragenin edema, 200 mg/kg i.p., borate buffer pH 7, 3 h): 0% | inhibition in vivo at 75 mg/kg (carragenin edema; 4 h, pH 7, read-out: % inhibition of carragenin edema, 75 mg/kg i.p., borate buffer pH 7, 4 h): 3% | inhibition in vivo at 100 mg/kg (carragenin edema; 4 h, pH 7, read-out: % inhibition of carragenin edema, 100 mg/kg i.p., borate buffer pH 7, 4 h): 18% | inhibition in vivo at 150 mg/kg (carragenin edema; 4 h, pH 7, read-out: % inhibition of carragenin edema, 150 mg/kg i.p., borate buffer pH 7, 4 h): 2% | inhibition in vivo at 200 mg/kg (carragenin edema; 4 h, pH 7, read-out: % inhibition of carragenin edema, 200 mg/kg i.p., borate buffer pH 7, 4 h): 0% | inhibition in vivo at 75 mg/kg (carragenin edema; 5 h, pH 7, read-out: % inhibition of carragenin edema, 75 mg/kg i.p., borate buffer pH 7, 5 h): 6% | inhibition in vivo at 100 mg/kg (carragenin edema; 5 h, pH 7, read-out: % inhibition of carragenin edema, 100 mg/kg i.p., borate buffer pH 7, 5 h): 19% | inhibition in vivo at 150 mg/kg (carragenin edema; 5 h, pH 7, read-out: % inhibition of carragenin edema, 150 mg/kg i.p., borate buffer pH 7, 5 h): 3% | inhibition in vivo at 200 mg/kg (carragenin edema; 5 h, pH 7, read-out: % inhibition of carragenin edema, 200 mg/kg i.p., borate buffer pH 7, 5 h): 2% | inhibition in vivo at 75 mg/kg (carragenin edema; 6 h, pH 7, read-out: % inhibition of carragenin edema, 75 mg/kg i.p., borate buffer pH 7, 6 h): 10% | inhibition in vivo at 100 mg/kg (carragenin edema; 6 h, pH 7, read-out: % inhibition of carragenin edema, 100 mg/kg i.p., borate buffer pH 7, 6 h): 18% | inhibition in vivo at 150 mg/kg (carragenin edema; 6 h, pH 7, read-out: % inhibition of carragenin edema, 150 mg/kg i.p., borate buffer pH 7, 6 h): 8% | inhibition in vivo at 200 mg/kg (carragenin edema; 6 h, pH 7, read-out: % inhibition of carragenin edema, 200 mg/kg i.p., borate buffer pH 7, 6 h): 1% | inhibition in vivo at 75 mg/kg (carragenin edema; read-out: % inhibition of carragenin edema, 75 mg/kg i.p., borate buffer pH 7, 1/2 h): 26% | inhibition in vivo at 100 mg/kg (carragenin edema; read-out: % inhibition of carragenin edema, 100 mg/kg i.p., borate buffer pH 7, 1/2 h): 45% | inhibition in vivo at 150 mg/kg (carragenin edema; read-out: % inhibition of carragenin edema, 150 mg/kg i.p., borate buffer pH 7, 1/2 h): 26% | inhibition in vivo at 200 mg/kg (carragenin edema; read-out: % inhibition of carragenin edema, 200 mg/kg i.p., borate buffer pH 7, 1/2 h): 40% | % of animals for which the effect is ≥ 25 u cm Hg/h (capillary resistance; 50 mg/kg i.p.): 40% | capillary resistance, effect observed (capillary resistance; 50 mg/kg i.p.): 19.5 ± 7.4 u cm Hg/h | % of animals for which the effect is ≥ 25 u cm Hg/h (capillary resistance; 100 mg/kg i.p.): 80% | capillary resistance, effect observed (capillary resistance; 100 mg/kg i.p.): 34.75 ± 11.1 u cm Hg/h | % of animals for which the effect is ≥ 25 u cm Hg/h (capillary resistance; 200 mg/kg i.p.): 100% | capillary resistance, effect observed (capillary resistance; 200 mg/kg i.p.): 56 ± 11.3 u cm Hg/h | percentage reduction of capillary permeability (capillary permeability; 50 mg/kg i.p.): 21% | percentage reduction of capillary permeability (capillary permeability; 100 mg/kg i.p.): 25% | percentage reduction of capillary permeability (capillary permeability; 200 mg/kg i.p.): 59% | dose until which no mortality resulted (OF1 EOPS mice): 400 mg/kg
